Data from ChEMBL document CHEMBL1155741, “Ellagitannins and hexahydroxydiphenoyl esters as inhibitors of vertebrate squalene epoxidase” (J Nat Prod, 2001).
pIC50: −log10 of the molar value.

What follows are compounds tested against Squalene epoxidase (Sus scrofa, UniProt A7L861) (assay: Inhibition of pig squalene epoxidase).
Sequence of Squalene epoxidase (A7L861 whole entry): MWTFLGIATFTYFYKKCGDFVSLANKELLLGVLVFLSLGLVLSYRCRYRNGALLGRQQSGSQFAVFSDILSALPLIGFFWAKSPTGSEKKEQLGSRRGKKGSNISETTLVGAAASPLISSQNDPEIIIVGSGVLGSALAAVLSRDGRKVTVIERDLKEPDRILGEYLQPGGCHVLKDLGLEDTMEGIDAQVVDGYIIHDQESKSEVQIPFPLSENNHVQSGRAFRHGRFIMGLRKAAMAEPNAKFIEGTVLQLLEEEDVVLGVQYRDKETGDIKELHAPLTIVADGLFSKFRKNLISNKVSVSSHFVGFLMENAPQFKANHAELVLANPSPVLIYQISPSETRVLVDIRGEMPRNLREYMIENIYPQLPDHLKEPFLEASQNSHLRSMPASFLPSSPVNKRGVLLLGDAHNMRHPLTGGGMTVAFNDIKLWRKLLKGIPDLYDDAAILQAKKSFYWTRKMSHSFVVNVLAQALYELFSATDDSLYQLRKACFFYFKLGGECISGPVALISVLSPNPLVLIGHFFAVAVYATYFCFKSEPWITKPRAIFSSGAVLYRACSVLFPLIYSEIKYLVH
`CC(C)=CCC/C(C)=C/CC/C(C)=C/CC/C=C(\C)CC/C=C(\C)CCCO` [TRISNORSQUALENE ALCOHOL] showed a pIC50 of 5.40.
`CC(C)=CCC/C(C)=C/CC/C(C)=C/CC/C=C(\C)CC/C=C(\C)CCCNC1CC1` [TRISNORSQUALENE CYCLOPROPYLAMINE] showed a pIC50 of 5.70.

Each compound was assayed against T1, Squalene monooxygenase (Rattus norvegicus, UniProt P52020) (assay: Inhibition of rat squalene epoxidase).
T1 sequence (P52020 whole entry): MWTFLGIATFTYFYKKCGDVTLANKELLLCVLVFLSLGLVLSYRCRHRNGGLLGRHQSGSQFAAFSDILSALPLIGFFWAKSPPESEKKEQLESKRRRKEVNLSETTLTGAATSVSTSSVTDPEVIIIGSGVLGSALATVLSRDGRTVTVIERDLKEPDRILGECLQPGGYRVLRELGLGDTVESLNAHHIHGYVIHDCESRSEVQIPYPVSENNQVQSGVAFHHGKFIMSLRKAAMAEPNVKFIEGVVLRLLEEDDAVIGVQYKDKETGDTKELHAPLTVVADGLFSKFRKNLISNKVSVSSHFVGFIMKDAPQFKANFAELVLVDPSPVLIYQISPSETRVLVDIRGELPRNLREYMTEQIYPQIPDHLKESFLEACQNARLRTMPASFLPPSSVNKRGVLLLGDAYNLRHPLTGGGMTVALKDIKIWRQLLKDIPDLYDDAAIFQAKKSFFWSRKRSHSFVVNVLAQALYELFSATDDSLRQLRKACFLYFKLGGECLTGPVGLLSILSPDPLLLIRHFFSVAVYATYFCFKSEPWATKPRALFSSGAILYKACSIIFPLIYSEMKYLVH
`O=C(O[C@@H]1[C@@H](c2c(O)cc(O)c3c2O[C@H](c2ccc(O)c(O)c2)[C@H](OC(=O)c2cc(O)c(O)c(O)c2)C3)c2c(O)cc(O)cc2O[C@@H]1c1ccc(O)c(O)c1)c1cc(O)c(O)c(O)c1` showed a pIC50 of 6.27.
In the case of `O=C(OC[C@H]1O[C@@H](OC(=O)c2cc(O)c(O)c(O)c2)[C@H](OC(=O)c2cc(O)c(O)c(O)c2)[C@@H](O)[C@@H]1O)c1cc(O)c(O)c(O)c1`, the pIC50 was 6.20.
With `O=C(O[C@@H]1Cc2c(O)cc(O)cc2O[C@@H]1c1cc(O)c(O)c(O)c1-c1c([C@H]2Oc3cc(O)cc(O)c3C[C@H]2OC(=O)c2cc(O)c(O)c(O)c2)cc(O)c(O)c1O)c1cc(O)c(O)c(O)c1` [THEASINENSIN A] the pIC50 was 6.89.
In the case of `CC(C)=CCC/C(C)=C/CC/C(C)=C/CC/C=C(\C)CC/C=C(\C)CCC=C(F)F` [TRISNORSQUALENE DIFLUOROMETHYLIDENE], the pIC50 was 5.27.

Each compound was assayed against T1, Squalene monooxygenase (assay: Inhibition of C-terminal hexahistidine-tagged rat recombinant squalene epoxidase without N-terminal putative membrane domain expressed in Escherichia coli).
Work on `O=C(O[C@@H]1O[C@@H]2COC(=O)c3cc(O)c(O)c(O)c3-c3c(O)c(O)c(O)c(Oc4cc(C(=O)O[C@@H]5O[C@@H]6COC(=O)c7cc(O)c(O)c(O)c7-c7c(cc(O)c(O)c7O)C(=O)O[C@H]6[C@@H]6OC(=O)c7cc(O)c(O)c(O)c7-c7cc(O)c(O)c(O)c7C(=O)O[C@@H]56)cc(O)c4O)c3C(=O)O[C@H]2[C@@H]2OC(=O)c3cc(O)c(O)c(O)c3-c3c(cc(O)c(O)c3O)C(=O)O[C@@H]12)c1cc(O)c(O)c(O)c1` yielded a pIC50 of 4.92.
For `COC(=O)c1cc(O)c(O)c(O)c1-c1c(C(=O)OC)cc(O)c(O)c1O`, the pIC50 was 4.79.
With `CCCCCCCCCCCCCCCCCCOC(=O)c1cc(O)c(O)c(O)c1-c1c(C(=O)OCCCCCCCCCCCCCCCCCC)cc(O)c(O)c1O` the pIC50 was 4.33.
`CCCCCCCCCCCCCCCCOC(=O)c1cc(O)c(O)c(O)c1-c1c(C(=O)OCCCCCCCCCCCCCCCC)cc(O)c(O)c1O` showed a pIC50 of 5.60.
`CCCCCCCCCCCCCCOC(=O)c1cc(O)c(O)c(O)c1-c1c(C(=O)OCCCCCCCCCCCCCC)cc(O)c(O)c1O` was tested, and the pIC50 was 5.82.
`O=C(O[C@@H]1O[C@@H]2COC(=O)c3cc(O)c(O)c(O)c3-c3c(cc(O)c(O)c3O)C(=O)O[C@H]2[C@@H]2OC(=O)c3cc(O)c(O)c(O)c3-c3c(cc(O)c(O)c3O)C(=O)O[C@@H]12)c1cc(O)c(O)c(O)c1` gave a pIC50 of 5.15.
`CCCCCCCCCCCCOC(=O)c1cc(O)c(O)c(O)c1-c1c(C(=O)OCCCCCCCCCCCC)cc(O)c(O)c1O` was tested, and the pIC50 was 5.89.
With `CCCCCCCCCCOC(=O)c1cc(O)c(O)c(O)c1-c1c(C(=O)OCCCCCCCCCC)cc(O)c(O)c1O` the pIC50 was 5.96.
`O=C1O[C@H]2[C@H](O)[C@@H](CO)OC(O)[C@@H]2OC(=O)c2cc(O)c(O)c(O)c2-c2c1cc(O)c(O)c2O` (some centres undefined) showed a pIC50 of 4.49.
Compound `CCCCOC(=O)c1cc(O)c(O)c(O)c1-c1c(C(=O)OCCCC)cc(O)c(O)c1O` has a pIC50 of 5.10.
`CCCCCCOC(=O)c1cc(O)c(O)c(O)c1-c1c(C(=O)OCCCCCC)cc(O)c(O)c1O` showed a pIC50 of 6.03.
With `CCCCCCCCOC(=O)c1cc(O)c(O)c(O)c1-c1c(C(=O)OCCCCCCCC)cc(O)c(O)c1O` the pIC50 was 6.08.
For `CCOC(=O)c1cc(O)c(O)c(O)c1-c1c(C(=O)OCC)cc(O)c(O)c1O`, the pIC50 was 4.88.
`O=C1OC[C@H]2OC(=O)c3cc(O)c(O)c(O)c3-c3c(O)c(O)c(O)c4c3C(=O)O[C@H]([C@H]3OC(=O)c5c-4c(O)c(O)c(O)c5[C@H]3O)[C@@H]2OC(=O)c2cc(O)c(O)c(O)c2-c2c1cc(O)c(O)c2O` [CASTALAGIN] gave a pIC50 of 4.52.
For `O=C(O[C@@H]1COC(=O)c2cc(O)c(O)c(O)c2-c2c(cc(O)c(O)c2O)C(=O)O[C@H]1[C@@H]1OC(=O)c2cc(O)c(O)c(O)c2-c2c(O)c(O)c(O)c3c2C(=O)O[C@H]1[C@@H]3O)c1cc(O)c(O)c(O)c1` [CASUARININ], the pIC50 was 4.47.
`O=C(O)C[C@@H]1C(=O)O[C@H]2[C@@H]3OC(=O)c4cc(O)c(O)c(O)c4-c4c(cc(O)c(O)c4O)C(=O)OC[C@H]2O[C@@H](OC(=O)c2cc(O)c(O)c(O)c2)[C@@H]3OC(=O)c2cc(O)c(O)c3c2[C@H]1[C@H](O)C(=O)O3` [CHEBULAGIC ACID] gave a pIC50 of 5.49.
For `O=C(O)C[C@H]1C(=O)O[C@H]2[C@H](OC(=O)c3cc(O)c(O)c(O)c3)[C@@H](OC(=O)c3cc(O)c(O)c4c3[C@H]1[C@H](O)C(=O)O4)[C@H](OC(=O)c1cc(O)c(O)c(O)c1)O[C@@H]2COC(=O)c1cc(O)c(O)c(O)c1` [CHEBULINIC ACID], the pIC50 was 4.92.
`O=C(O[C@@H]1O[C@@H]2COC(=O)c3cc(O)c(O)c(O)c3-c3c(cc(O)c(O)c3O)C(=O)O[C@H]([C@H]1O)[C@@H]2O)c1cc(O)c(O)c(O)c1` [CORILAGIN] gave a pIC50 of 5.40.
Work on `O=c1oc2c(O)c(O)cc3c(=O)oc4c(O)c(O)cc1c4c23` [ELLAGIC ACID] yielded a pIC50 of 5.70.
In the case of `CCOC(=O)c1cc(O)c(O)c(O)c1` [ETHYLGALLATE], the pIC50 was 5.38.
`O=C(O[C@@H]1O[C@@H]2COC(=O)c3cc(O)c(O)c(O)c3-c3c(cc(O)c(O)c3O)C(=O)O[C@H]2[C@H](OC(=O)c2cc(O)c(O)c(O)c2)[C@H]1OC(=O)c1cc(O)c(O)c(O)c1)c1cc(O)c(O)c(O)c1` [EUGENIIN] gave a pIC50 of 5.80.
For `O=C1O[C@H]2[C@H](O)[C@@H](OC(=O)c3cc(O)c(O)c4c3[C@@H]3C1=CC(=O)C(O)(O)C3(O)O4)[C@H](OC(=O)c1cc(O)c(O)c(O)c1)O[C@@H]2CO` (some centres undefined) [FUROSIN], the pIC50 was 5.00.
For `O=C(O)c1cc(O)c(O)c(O)c1` [GALLIC ACID], the pIC50 was 4.14.
With `O=C1O[C@H]2[C@@H]3OC(=O)c4cc(O)c(O)c(O)c4-c4c(cc(O)c(O)c4O)C(=O)OC[C@H]2O[C@@H](OC(=O)c2cc(O)c(O)c(O)c2)[C@@H]3OC(=O)c2cc(O)c(O)c3c2[C@@H]2C1=CC(=O)[C@](O)(O3)C2(O)O` [GERANIIN] the pIC50 was 5.39.
`CCCCCCCCCCCCCCCCOC(=O)c1cc(O)c(O)c(O)c1` [HEXADECYL GALLATE] gave a pIC50 of 6.23.
With `O=C(O[C@@H]1O[C@@H]2COC(=O)c3cc(O)c(O)c(O)c3-c3c(cc(Oc4c(C(=O)O)cc(O)c(O)c4O)c(O)c3O)C(=O)O[C@H]([C@H]1O)[C@@H]2O)c1cc(O)c(O)c(O)c1` [MALLOTINIC ACID] the pIC50 was 5.10.
`O=C1O[C@H]2[C@@H]3OC(=O)c4cc(Oc5c(C(=O)O)cc(O)c(O)c5O)c(O)c(O)c4-c4c(cc(O)c(O)c4O)C(=O)OC[C@H]2O[C@@H](OC(=O)c2cc(O)c(O)c(O)c2)[C@@H]3OC(=O)c2cc(O)c(O)c3c2[C@@H]2C1=CC(=O)[C@](O)(O3)C2(O)O` [MALLOTUSINIC ACID] gave a pIC50 of 5.10.
In the case of `CCCCCCCCOC(=O)c1cc(O)c(O)c(O)c1` [OCTYL_GALLATE], the pIC50 was 6.08.
For `O=C1OC[C@H]2OC(O)[C@@H]3OC(=O)c4cc(O)c(O)c(O)c4-c4c(cc(O)c(O)c4O)C(=O)O[C@H]3[C@@H]2OC(=O)c2cc(O)c(O)c(O)c2-c2c1cc(O)c(O)c2O` (some centres undefined) [PEDUNCULAGIN], the pIC50 was 5.70.
With `O=C(OC[C@H]1O[C@@H](OC(=O)c2cc(O)c(O)c(O)c2)[C@H](OC(=O)c2cc(O)c(O)c(O)c2)[C@@H](OC(=O)c2cc(O)c(O)c(O)c2)[C@@H]1OC(=O)c1cc(O)c(O)c(O)c1)c1cc(O)c(O)c(O)c1` [PENTAGALLOYL GLUCOSE] the pIC50 was 6.33.
`O=C(OC[C@H]1O[C@@H](OC(=O)c2cc(O)c(O)c(O)c2)[C@H](OC(=O)c2cc(O)c(O)c(O)c2)[C@@H](OC(=O)c2cc(O)c(O)c(O)c2)[C@@H]1OC(=O)c1cc(O)c(O)c(O)c1Oc1cc2c(c(O)c1O)-c1c(cc(O)c(O)c1O)C(=O)O[C@H]1[C@H](OC(=O)c3cc(O)c(O)c(O)c3)[C@@H](OC(=O)c3cc(O)c(O)c(O)c3)[C@H](OC(=O)c3cc(O)c(O)c(O)c3)O[C@@H]1COC2=O)c1cc(O)c(O)c(O)c1` [PHYLLYRAEOIDIN] showed a pIC50 of 4.00.
`O=C1O[C@@H]2[C@@H](OC(=O)c3cc(O)c(O)c(O)c3-c3c1cc(O)c(O)c3O)[C@H](O)O[C@@H]1COC(=O)c3cc(O)c(O)c(O)c3-c3c(O)c(O)c4oc(=O)c5c(c(O)c(O)c6oc(=O)c3c4c65)-c3c(cc(O)c(O)c3O)C(=O)O[C@@H]21` [PUNICALAGIN] was tested, and the pIC50 was 4.40.
Work on `O=C1OC[C@H]2O[C@@H](O)[C@H](O)[C@@H](O)[C@@H]2OC(=O)c2cc(O)c(O)c(O)c2-c2c(O)c(O)c3oc(=O)c4c(c(O)c(O)c5oc(=O)c2c3c54)-c2c1cc(O)c(O)c2O` [PUNICALIN] yielded a pIC50 of 4.70.
